The source of these data is ChEMBL document CHEMBL1124592, “In vitro metabolic transformations of vinblastine: oxidations catalyzed by human ceruloplasmin” (J Med Chem, 1989).

The test relates to CCRF-CEM. Nature of the test: Inhibition against […]-T-Cell leukemic cell line. It counts as functional, cell-based. As to conditions: Homo sapiens.

In brackets after ≈: the same amount, converted by molar mass.

On to `CCC(=O)C[C@@H]1CN(C=O)CCc2c([nH]c3ccccc23)[C@@](C(=O)OC)(c2cc3c(cc2OC)N(C)[C@H]2[C@@](O)(C(=O)OC)[C@H](OC(C)=O)[C@]4(CC)C=CCN5CC[C@]32[C@@H]54)C1`, for which the IC50 was 7.7 µg/mL (≈ 9.33 µM). Take `CCC(=O)CC1CN(C=O)CCc2c([nH]c3ccccc23)[C@@](C(=O)OC)(c2cc3c(cc2OC)N(C)C2C4(C(=O)OC)OC5C=CN6CCC32C6[C@]5(CC)C4OC(C)=O)C1` (stereo not given in full): the IC50 was found to be 14 µg/mL (≈ 17 µM). `CC[C@]12CN3CCc4c([nH]c5ccccc45)[C@@](C(=O)OC)(c4cc5c(cc4OC)N(C)[C@H]4[C@@](O)(C(=O)OC)[C@H](OC(C)=O)[C@]6(CC)C=CCN7CC[C@]54[C@@H]76)C[C@@H](C3)[C@H]1O2.CC[C@]12CN3CCc4c([nH]c5ccccc45)[C@@](C(=O)OC)(c4cc5c(cc4OC)N(C)[C@H]4[C@@](O)(C(=O)OC)[C@H](OC(C)=O)[C@]6(CC)C=CCN7CC[C@]54[C@@H]76)C[C@@H](C3)[C@H]1O2.O=S(=O)(O)O` [VINLEUROSINE SULFATE] gave an IC50 of 0.4 µg/mL. The compound `CC[C@]1(O)C[C@H]2CN(CCc3c([nH]c4ccccc34)[C@@](C(=O)OC)(c3cc4c(cc3OC)N(C=O)[C@H]3[C@@](O)(C(=O)OC)[C@H](OC(C)=O)[C@]5(CC)C=CCN6CC[C@]43[C@@H]65)C2)C1` [VINCRISTINE] returned a half-inhibitory concentration (IC50) of 0.025 µg/mL (≈ 0.0303 µM).

With `CC[C@]1(O)C[C@@H]2CN(CCc3c([nH]c4ccccc34)[C@@](C(=O)OC)(c3cc4c(cc3OC)N(C)[C@H]3[C@@](O)(C(=O)OC)[C@H](OC(C)=O)[C@]5(CC)C=CCN6CC[C@]43[C@@H]65)C2)C1` [VINBLASTINE], inhibition was half-maximal at 0.1 µg/mL (≈ 0.123 µM) (IC50).

What is called IC50 is the concentration that inhibits the measured activity by half.
